Assay results: patent US20260294874A1, “COMPOSITIONS COMPRISING MODULATORS OF RIBONUCLEOPROTEIN GRANULE FORMATION AND DISSOLUTION AND METHODS OF USE THEREOF” (University of Virginia Patent Foundation, priority 2023, published 2026)
“Also recorded” adds a separate entry of the source.

Columns and labels:
Format in all cases: cell-based
[1] = target: T1, HNRPK Y72 (Homo sapiens, UniProt P61978); test: Competitive ABPP SILAC LC-MS/MS chemical proteomics, HNRPK Y72
T1 construct: liganded site Y72
Method: (§1) Preparation of SILAC proteomes for LC-MS/MS analysis. SILAC cell proteomes were fractionated to collect the supernatant and normalized to 2.3 mg/mL in PBS. ‘Heavy’ and ‘light’ proteomes were aliquoted (427 μL) and probe-modified proteins were conjugated to desthiobiotin-PEG-3-azide using copper-catalyze azide-alkyne cycloaddition, trypsinized into peptides using Trypsin/Lys-C Mix (Catalog No. V5071; Promega Corporation, Madison, Wisconsin, United States of America), enriched using PIERCE™ Avidin Agarose brand beads (Catalog No. 20219; Thermo Fisher Scientific Inc., Waltham, Massachusetts. United States of America), and prepared for nano-electrospray ionization-LC-MS/MS analysis as previously described in Hahm et al., 2020.
(§2) Data Analysis—Chemical Proteomics. Identification and analysis of peptides and proteins using LC-MS was accomplished using bioinformatics software and quality control parameter protocols as previously described in Hahm et al., 2020.
(§3) We performed quantitative liquid-chromatography tandem mass spectrometry (LC-MS/MS) chemical proteomic studies to identify the target protein and binding site(s) of SuTEx fragments with RNP granule modulating activity. […]
(§4) We detected ~8,700 probe-modified sites (Tyr and Lys) in our aggregate HeLa and HEK293T chemical proteomic analyses. […]

[2] = system: G3BP1 Y40E-rescued G3BP KO cells; test: SG formation in G3BP KO U20S cells rescued with G3BP1 Y40E; conditions: 25 μM, 2 h
Method: (§5) G3BP KO and rescue studies. U20S G3BP1/2 double knockout (G3BP KO) cell-line was a kind gift from the C. Brangwynne lab (Princeton University, Princeton, New Jersey, United States of America) and generated as previously described in Kedersha et al., 2016. G3BP KO cells were seeded at 9.0×10^4 in a 24-well plate with 12-mm glass coverslips. Next day, the cells were transfected with […] vectors with 1 μg/mL tetracycline and LIPOFECTAMINE™ 3000 brand transfection reagent according to the manufacturer's protocol (Thermo Fisher Scientific). 20 hours post-transfection, the cells were treated with 25 μM SuTEx probes for 2 hours in DMEM medium without FBS. The cells were then treated with 75 μM NaAsO2 for 30 minutes and fixed with 3% paraformaldehyde in PBS for 15 minutes at RT and washed with PBS twice. The same protocols for IF of HeLa cells and quantification of G3BP1-positive SGs described above were followed thereafter.
(§6) To determine whether the cell biological effects mediated by HHS-166 were Y40-dependent, we expressed recombinant G3BP1 WT or Y40 mutant in previously established G3BP1/2 double knockout U20S (G3BP KO) cells (Kedersha et al., 2016; Sanders et al., 2020) and evaluated the resulting effects on SG response to [COMPOUND LEFT OUT]. […]

[3] = system: G3BP1 Y40F-expressing G3BP KO cells; test: SG formation in G3BP KO U20S cells rescued with G3BP1 Y40F; conditions: 25 μM, 2 h
Method: as §5, §6

[4] = target: T2, EDC3 Y475 (Homo sapiens, UniProt Q96F86); test: Competitive ABPP SILAC LC-MS/MS chemical proteomics, EDC3 Y475; conditions: glucose-deprived HEK293T cells, 25 μM, 2 h
T2 sequence (Q96F86 1-508): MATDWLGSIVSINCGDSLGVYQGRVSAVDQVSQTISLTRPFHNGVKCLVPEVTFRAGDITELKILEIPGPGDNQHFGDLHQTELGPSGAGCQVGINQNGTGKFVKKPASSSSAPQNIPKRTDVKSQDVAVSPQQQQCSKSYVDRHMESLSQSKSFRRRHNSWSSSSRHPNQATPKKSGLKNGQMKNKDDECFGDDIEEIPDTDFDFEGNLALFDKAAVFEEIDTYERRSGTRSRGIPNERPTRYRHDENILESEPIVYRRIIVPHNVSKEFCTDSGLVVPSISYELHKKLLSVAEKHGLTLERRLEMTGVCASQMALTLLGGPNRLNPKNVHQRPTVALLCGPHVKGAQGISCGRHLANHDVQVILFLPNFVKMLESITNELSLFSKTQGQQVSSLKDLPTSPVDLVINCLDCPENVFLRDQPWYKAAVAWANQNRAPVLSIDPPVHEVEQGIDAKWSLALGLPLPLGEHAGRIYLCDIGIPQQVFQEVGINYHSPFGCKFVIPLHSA
Method: as §1, §2
We performed quantitative liquid-chromatography tandem mass spectrometry (LC-MS/MS) chemical proteomic studies to identify the target protein and binding site(s) of SuTEx fragments with RNP granule modulating activity. […] SILAC light and heavy cells (HEK293T and HeLa) were treated with experimental conditions used for phenotypic screening including the SuTEx ligand pretreatment (25 μM, 2 h) followed by PB (glucose-deprivation, 15 min) and SG induction (75 μM [COMPOUND LEFT OUT], 30 min). Afterwards, cells were lysed, soluble proteomes treated with HHS-465 SuTEx probe (100 μM, 1 h), a global Tyr/Lys-reactive probe used previously for RNP granule investigations (Ciancone et al., 2022), and samples processed to probe-modified peptides for LC-MS/MS analysis as previously reported (Huang et al., 2021), shown in FIG. 10.
as §4

[5] = system: Tyr and Lys sites of HeLa and HEK293T proteomes; test: Proteome-wide competitive ABPP SILAC LC-MS/MS chemical proteomics of liganded Tyr/Lys sites; conditions: glucose-deprived HEK293T cells, 25 μM, 2 h
Method: as §1, §2, §3, §4

Row | liganding of HNRPK Y72 (in words) [1] | SILAC ratio (SR), EDC3 Y475 ([4]; HHS-465 100 μM, DMSO (light)/ligand (heavy)) | SMILES | effect on SG formation (in words) [2] | effect on SG formation (in words) [3] | liganding of EDC3 Y475 (in words) [4] | number of reproducibly liganded sites in addition to EDC3 Y475 [5]
1 | not | – | COc1ccc(S(=O)(=O)n2cc(C3CCCCC3)nn2)cc1 [HHS-166, 4-Cyclohexyl-1-((4-methoxyphenyl)sulfonyl)-111-1,2,3-triazole] | insensitive to HHS-166 treatment and lost and not Y40E- | lost | – | –
2 | – | > 2 | COc1ccc(S(=O)(=O)n2cc(CS(C)(=O)=O)nn2)cc1 [AHL-030, 1-((4-Methoxyphenyl)sulfonyl)-4-((methylsulfonyl)methyl)-1H-1,2,3-triazole] | – | – | localized AHL-030 site of binding to Y475; also recorded: liganded site (Y475) | 7
